In brackets after ≈: the same amount, converted by molar mass. Read-outs that look alike come from different tables or passages of the source. Square brackets hold non-standard residues; d marks the D form. Peptide text beside a SMILES is read from it. Trp(6-Br) = N[C@@H](Cc1c[nH]c2cc(Br)ccc12)C(=O)O
Legend:
Format in all cases: cell-based
[1] = tested on: Corynebacterium glutamicum (ATCC 13032)
Description: (§1) Organic phase extract, SPE eluates and HPLC-fractions were screened for antibacterial activity against two strains of Gram-positive and two strains of Gram-negative bacteria; Corynebacterium glutamicum (ATCC 13032), Staphylococcus aureus (ATCC 9144), Pseudomonas aeruginosa #1 (ATCC 27853) and Escherichia coli #1 (ATCC 25922). For extended antimicrobial bioactivity screening, the following bacterial strains were used, three strains of Gram-positive bacteria; S. epidermidis #1 (5179-R1) kindly provided by Holger Rohde, S. epidermidis #2, RP62A (ATCC 35984) and Bacillus subtilis (ATCC 23857) in addition to the Gram-negative P. aeruginosa #2, PA 01 (ATCC 15692, DSM 19880) and E. coli #2, NR 698 (MC4100/ptD4213).
(§2) Cultures stored at -80°C were smeared onto agar plates and cultured for 24 h at 35°C. One colony of each bacterial strain was transferred to 5 ml liquid Müller-Hinton (MH, Difco, Lawrence, KS, USA) medium in a glass tube and left shaking at room temperature overnight at 600 rpm. The cultures of actively growing bacteria (20 μl) were further inoculated in 5 ml MH medium and left shaking for 2 h at room temperature. The antibacterial assays were performed as previously described by. Briefly, the bacterial cultures were diluted with medium to 1.3–1.5 × 10^4 bacteria/ml final concentrations and an aliquot of 50 μl was added to each well in 96-well Nunclon^TM microtiter plates (Nagle Nunc Int., Denmark) preloaded with 50 μl test sample solutions, i.e. extracts, eluates or peptides.
(§3) The test plates were incubated for 24 h at 35°C with optical density (OD595) recorded every hour using an Envision 2103 multilabel reader, controlled by the Wallac Envision manager (PerkinElmer, CT, USA). Antibacterial activity was defined as a sample showing >90% inhibition (as measured by optical density) compared to the negative (growth) controls, consisting of bacteria and water. Oxytetracycline (20 μM) served as a positive (inhibition) control. The minimum inhibitory concentration (MIC) was defined as the lowest concentration of a sample displaying >90% inhibition.
(§4) ACN-phases and SPE eluates were tested with two-fold serial dilutions ranging from 5.0 to 0.005 mg/ml (5.0, 2.5, 1.25, 0.63, 0.31, 0.16, 0.08, 0.04, 0.02, 0.01, 0.005 mg/ml) whereas HPLC-fractions were tested undiluted for antibacterial activity. Pure, native peptides and synthetic peptides (described in section 2.11) were tested for antimicrobial activity in concentrations ranging from 100 to 0.1 μM in two-fold serial dilutions (100, 50, 25, 12.5, 6.25, 3.13, 1.56, 0.78, 0.39, 0.20, 0.10 μM). Antimicrobial assays involving natural peptides (i.e. fractionated natural material) were run only once due to limited quantities, whereas all other assays were run in triplicates.

[2] = tested on: Pseudomonas aeruginosa #1 (ATCC 27853)
Description: as §1, §2, §3, §4

[3] = tested on: Bacillus subtilis (ATCC 23857)
Description: as §1, §2, §3, §4

[4] = tested on: Escherichia coli #1 (ATCC 25922)
Description: as §1, §2, §3, §4

[5] = tested on: S. epidermidis #2, RP62A (ATCC 35984)
Description: as §1, §2, §3, §4

[6] = tested on: Staphylococcus aureus (ATCC 9144)
Description: as §1, §2, §3, §4

[7] = tested on: P. aeruginosa #2, PA 01 (ATCC 15692, DSM 19880)
Description: as §1, §2, §3, §4

[8] = tested on: S. epidermidis #1 (5179-R1)
Description: as §1, §2, §3, §4

[9] = tested on: E. coli #2, NR 698 (MC4100/ptD4213)
Description: as §1, §2, §3, §4

[10] = tested on: Rhodotorula sp.
Protocol: (§5) The synthetic peptides (see section 2.11) were also screened for antifungal activity against Candida albicans (ATCC 10231), Saccharomyces cerevisiae, Rhodotorula sp., Aureobasidium pullulans and Cladosporium sp. The antifungal assay was performed as described previously. Briefly, fungal spores were dissolved in potato dextrose broth (Difco, Lawrence, KS, USA) to a concentration of 4 × 10^5 spores/ml. The spores (50 μl) were inoculated on 96-well Nunclon^TM microtiter plates containing the synthetic peptides (50 μl) dissolved in MQ-H2O. […] MIC was defined as the lowest concentration of peptide giving no visible fungal growth. The negative (growth) control contained medium and fungal solution.
as §4

[11] = tested on: Cladosporium sp.
Protocol: as §5, §4

[12] = tested on: Aureobasidium pullulans
Protocol: as §5, §4

[13] = tested on: Candida albicans (ATCC 10231)
Protocol: as §5, §4

[14] = tested on: Saccharomyces cerevisiae
Protocol: as §5, §4

[15] = tested on: Gram-positive and Gram-negative bacteria (tested strains); settings: 24 h
Description: as §1, with “(MC4100/ptD4213). […]” for “(MC4100/ptD4213).”
The test plates were incubated for 24 h at 35°C with optical density (OD595) recorded every hour using an Envision 2103 multilabel reader, controlled by the Wallac Envision manager (PerkinElmer, CT, USA). […]
ACN-phases and SPE eluates were tested with two-fold serial dilutions ranging from 5.0 to 0.005 mg/ml (5.0, 2.5, 1.25, 0.63, 0.31, 0.16, 0.08, 0.04, 0.02, 0.01, 0.005 mg/ml) whereas HPLC-fractions were tested undiluted for antibacterial activity. […] Antimicrobial assays involving natural peptides (i.e. fractionated natural material) were run only once due to limited quantities, whereas all other assays were run in triplicates.

CC(C)C[C@H](NC(=O)[C@H](C)NC(=O)CNC(=O)[C@H](CS)NC(=O)[C@H](C)NC(=O)[C@H](CCCCN)NC(=O)[C@H](CO)NC(=O)[C@H](C)NC(=O)[C@H](Cc1ccccc1)NC(=O)CNC(=O)[C@H](C)NC(=O)[C@@H](NC(=O)[C@H](CCCCN)NC(=O)[C@H](CCCNC(=N)N)NC(=O)CNC(=O)[C@H](C)NC(=O)[C@H](CC(N)=O)NC(=O)[C@H](CCCNC(=N)N)NC(=O)[C@@H](NC(=O)[C@H](CCCCN)NC(=O)[C@H](CC(=O)O)NC(=O)[C@@H](NC(=O)[C@@H](NC(=O)[C@H](CCCNC(=N)N)NC(=O)[C@H](CCCNC(=N)N)NC(=O)[C@H](Cc1c[nH]c2cc(Br)ccc12)NC(=O)[C@H](Cc1c[nH]c2cc(Br)ccc12)NC(=O)CN)[C@@H](C)O)C(C)C)C(C)C)C(C)C)C(=O)NCC(=O)N[C@@H](Cc1c[nH]cn1)C(=O)O [EeCentrocin 1 HC-diBr] (H-G[Trp(6-Br)][Trp(6-Br)]RRTVDKVRNAGRKVAGFASKACGALGH-OH)
MIC C. glutamicum ([1]; ATCC 13032, 24 h): 0.78 µM (≈ 2.66 µg/mL) | MIC raw data C. glutamicum ([1]; parallel 1 of three): 0.78 µM (≈ 2.66 µg/mL) | MIC raw data C. glutamicum ([1]; parallel 2 of three): 0.78 µM (≈ 2.66 µg/mL) | MIC raw data C. glutamicum ([1]; parallel 3 of three): 0.39 µM (≈ 1.33 µg/mL) | MIC raw data P. aeruginosa #1 ([2]; parallel 1 of three): 1.56 µM (≈ 5.33 µg/mL) | MIC raw data P. aeruginosa #1 ([2]; parallel 2 of three): 1.56 µM (≈ 5.33 µg/mL) | MIC raw data P. aeruginosa #1 ([2]; parallel 3 of three): 1.56 µM (≈ 5.33 µg/mL) | MIC raw data B. subtilis ([3]; parallel 1 of three): 1.56 µM (≈ 5.33 µg/mL) | MIC raw data B. subtilis ([3]; parallel 2 of three): 1.56 µM (≈ 5.33 µg/mL) | MIC raw data B. subtilis ([3]; parallel 3 of three): 0.78 µM (≈ 2.66 µg/mL) | MIC raw data E. coli #1 ([4]; parallel 1 of three): 1.56 µM (≈ 5.33 µg/mL) | MIC raw data E. coli #1 ([4]; parallel 2 of three): 1.56 µM (≈ 5.33 µg/mL) | MIC raw data E. coli #1 ([4]; parallel 3 of three): 0.78 µM (≈ 2.66 µg/mL) | MIC S. epidermidis #2 ([5]; ATCC 35984, 24 h): 3.13 µM (≈ 10.7 µg/mL) | MIC raw data S. epidermidis #2 ([5]; parallel 1 of three): 3.13 µM (≈ 10.7 µg/mL) | MIC raw data S. epidermidis #2 ([5]; parallel 2 of three): 3.13 µM (≈ 10.7 µg/mL) | MIC raw data S. epidermidis #2 ([5]; parallel 3 of three): 3.13 µM (≈ 10.7 µg/mL) | MIC S. aureus ([6]; ATCC 9144, 24 h): 3.13 µM (≈ 10.7 µg/mL) | MIC raw data S. aureus ([6]; parallel 1 of three): 3.13 µM (≈ 10.7 µg/mL) | MIC raw data S. aureus ([6]; parallel 2 of three): 3.13 µM (≈ 10.7 µg/mL) | MIC raw data S. aureus ([6]; parallel 3 of three): 1.56 µM (≈ 5.33 µg/mL) | MIC P. aeruginosa #2 ([7]; ATCC 15692, 24 h): 3.13 µM (≈ 10.7 µg/mL) | MIC raw data P. aeruginosa #2 ([7]; parallel 1 of three): 3.13 µM (≈ 10.7 µg/mL) | MIC raw data P. aeruginosa #2 ([7]; parallel 2 of three): 3.13 µM (≈ 10.7 µg/mL) | MIC raw data P. aeruginosa #2 ([7]; parallel 3 of three): 3.13 µM (≈ 10.7 µg/mL) | MIC S. epidermidis #1 ([8]; #1 (5179-R1, 24 h)): 6.25 µM (≈ 21.3 µg/mL) | MIC raw data S. epidermidis #1 ([8]; parallel 1 of three): 6.25 µM (≈ 21.3 µg/mL) | MIC raw data S. epidermidis #1 ([8]; parallel 2 of three): 6.25 µM (≈ 21.3 µg/mL) | MIC raw data S. epidermidis #1 ([8]; parallel 3 of three): 6.25 µM (≈ 21.3 µg/mL) | MIC raw data E. coli #2 ([9]; parallel 1 of three): 1.56 µM (≈ 5.33 µg/mL) | MIC raw data E. coli #2 ([9]; parallel 2 of three): 1.56 µM (≈ 5.33 µg/mL) | MIC raw data E. coli #2 ([9]; parallel 3 of three): 0.78 µM (≈ 2.66 µg/mL) | MIC raw data Rhodotorula sp. ([10]; parallel 1 of three): 12.5 µM (≈ 42.7 µg/mL) | MIC raw data Rhodotorula sp. ([10]; parallel 2 of three): 12.5 µM (≈ 42.7 µg/mL) | MIC raw data Rhodotorula sp. ([10]; parallel 3 of three): 12.5 µM (≈ 42.7 µg/mL) | MIC Cladosporium sp. ([11]; 24 h): >100 µM | MIC raw data Cladosporium sp. ([11]; parallel 1 of three): >100 µM | MIC raw data Cladosporium sp. ([11]; parallel 2 of three): >100 µM | MIC raw data Cladosporium sp. ([11]; parallel 3 of three): >100 µM | MIC A. pullulans ([12]; 24 h): 6.25 µM (≈ 21.3 µg/mL) | MIC raw data A. pullulans ([12]; parallel 1 of three): 6.25 µM (≈ 21.3 µg/mL) | MIC raw data A. pullulans ([12]; parallel 2 of three): 6.25 µM (≈ 21.3 µg/mL) | MIC raw data A. pullulans ([12]; parallel 3 of three): 6.25 µM (≈ 21.3 µg/mL) | MIC C. albicans ([13]; ATCC 10231, 24 h): 50 µM (≈ 171 µg/mL) | MIC raw data C. albicans ([13]; parallel 1 of three): 50 µM (≈ 171 µg/mL) | MIC raw data C. albicans ([13]; parallel 2 of three): 50 µM (≈ 171 µg/mL) | MIC raw data C. albicans ([13]; parallel 3 of three): 50 µM (≈ 171 µg/mL) | MIC S. cerevisiae ([14]; 24 h): >100 µM | MIC raw data S. cerevisiae ([14]; parallel 1 of three): >100 µM | MIC raw data S. cerevisiae ([14]; parallel 2 of three): >100 µM | MIC raw data S. cerevisiae ([14]; parallel 3 of three): >100 µM | MIC range towards bacteria [15]: 0.78 to 6.25 µM
